Key:
[1] = cited from earlier work
[2] = tested on: opiate receptors—μ, κ and δ; conditions: cited from earlier work
respiratory rate = assay: Induced morphine overdose and rescue with nalmefene in anesthetized porcine animal model; type: in vivo
From the text: The following examples provides data collected from an opioid overdose rescue device during overdose and rescue animal studies. The opioid overdose rescue device included a substrate having a PPG sensor, accelerometer and microcontroller disposed thereon, which was coupled to a substrate having a radio, chip antenna, power management components, and magnet sensor (so the device could be turned on and off without direct contact) disposed thereon.
FIGS. 6A and 6B show an example PPG sensor recording from the intestines in an anesthetized porcine animal model during an overdose and recovery study. The PPG sensor was endoscopically placed into the small intestine and anchored to intestinal tissue with 2 endoclips—one on each side of the device.
Baseline data was collected for 8 minutes. Then 60 mg of IV morphine was administered over 3 minutes (20 mg each minute for 3 minutes). The respiratory rate as measured by the lab vitals monitoring equipment decreased eventually to zero, indicated respiratory failure. One minute after respiratory failure, 50 mg nalmefene in solution was administered endoscopically directly into the intestines. Within 4 minutes of nalmefene delivery breathing recovered and eventually returned to pre-overdose levels. […] In certain aspects, a method of mitigating the effects of an opioid overdose could involve determining when a measured respiratory rate drops below a threshold (e.g. 8 breaths per minute) for a duration of time (e.g. 30 seconds) and commanding release of a rescue medication.
In a different study than referenced in FIG. 7, the device was endoscopically placed and anchored in the animal's intestine in a similar manner. […] As with the PPG data, a measured respiratory rate obtained from the motion sensing (i.e. accelerometer) data in the intestine could be used to detect an opioid overdose and trigger delivery of a rescue medication.

SMILES	oral bioavailability [1]	antagonist activity at opiate receptor types [2]	time after nalmefene delivery until breathing recovered (respiratory rate; PPG sensor study (FIG. 7), 50 mg nalmefene in solution endoscopically into the intestines, one minute after respiratory failure from 60 mg IV morphine)	time after nalmefene delivery until respiratory rate restored to normal levels (respiratory rate; accelerometer study (FIG. 8), 50 mg nalmefene in solution endoscopically delivered after respiratory failure from 60 mg IV morphine)	respiratory rate after morphine (lab vitals monitor) (respiratory rate; 60 mg IV morphine over 3 minutes, zero indicates respiratory failure)
C=C1CC[C@@]2(O)[C@H]3Cc4ccc(O)c5c4[C@@]2(CCN3CC2CC2)[C@H]1O5 [nalmefene]	41%	antagonist activity against all three types of opiate receptors	≤ 4 min	14 min	–
CN1CC[C@]23c4c5ccc(O)c4O[C@H]2[C@@H](O)C=C[C@H]3[C@H]1C5 [morphine]	–	–	–	–	zero

— patent US12053606B2, “Opioid overdose rescue device” (Celero Systems, Inc., priority 2019, dated 2024)
